From patent publication US12622948B2 (SUN PHARMACEUTICAL INDUSTRIES LIMITED, priority 2020, dated 2026)
Marks after values point to notes of the source that are not given here. Starred links: 1 amine or outer side, 2 acyl side, 3 side chain; linkers in the order of their positions; H or OH if unused. Non-standard residues stand in square brackets, D forms with d. Residues, ends and D or L forms follow the SMILES beside them. Groups on a side chain read outwards from the residue. *: point of attachment. C20 diacid = O=C(O)CCCCCCCCCCCCCCCCCCC(=O)*; γGlu = O=C(O)[C@H](CCC(=O)[*:2])N[*:1]; AEEA = NCCOCCOCC(=O)O; Aib = CC(C)(N)C(=O)O

Test system: type 2 diabetic mouse (db/db) model
Assay: Efficacy study in db/db mice at 10 nM/kg dose (blood glucose, body weight, food intake)
Assay type: in vivo
Conditions: for Cumulative food Intake (g) 0-48 hr. vs. Baseline, Mean / Cumulative food Intake (g) 0-96 hr. vs. Baseline, Mean / Delta Blood Glucose (mM) Mean / Body Wt. Change (%) 48 hr. vs. Baseline, Mean / Body Wt. Change (%) 96 hr. vs. Baseline, Mean: Study 2, db/db mice, 10 nM/kg s.c. single dose; for blood glucose reduction / body weight reduction / reduction in food consumption: db/db mice, 10 nM/kg s.c., vs diabetic control
Protocol: The effect of compounds of present invention on blood glucose, food intake and body weight was studied in mice. This study was performed in a type 2 diabetic mouse (db/db) model. […] Baseline blood glucose was measured from all the animals. […] All the animals were administered with test items subcutaneously. […] Delta blood glucose (mM) was calculated.

SMILES	Cumulative food Intake (g) 0-48 hr. vs. Baseline, Mean	Cumulative food Intake (g) 0-96 hr. vs. Baseline, Mean	Delta Blood Glucose (mM) Mean (0 hr (baseline))	Delta Blood Glucose (mM) Mean (4 hr)	Delta Blood Glucose (mM) Mean (8 hr)	Delta Blood Glucose (mM) Mean (12 hr)	Delta Blood Glucose (mM) Mean (24 hr)	Body Wt. Change (%) 48 hr. vs. Baseline, Mean (48 hr)	Delta Blood Glucose (mM) Mean (48 hr)	Delta Blood Glucose (mM) Mean (72 hr)	Body Wt. Change (%) 96 hr. vs. Baseline, Mean (96 hr)	Delta Blood Glucose (mM) Mean (96 hr)	blood glucose reduction	body weight reduction	reduction in food consumption
CC[C@H](C)[C@H](NC(=O)[C@H](CCCCN)NC(=O)[C@H](CC(=O)O)NC(=O)[C@H](CC(C)C)NC(=O)[C@H](CC(C)C)NC(=O)[C@@H](NC(=O)[C@H](CO)NC(=O)[C@H](Cc1ccc(O)cc1)NC(=O)[C@H](CC(=O)O)NC(=O)[C@H](CO)NC(=O)[C@@H](NC(=O)[C@H](Cc1ccccc1)NC(=O)[C@@H](NC(=O)CNC(=O)[C@H](CCC(=O)O)NC(=O)C(C)(C)NC(=O)[C@@H](N)Cc1ccc(O)cc1)[C@@H](C)O)[C@@H](C)O)[C@@H](C)CC)C(=O)N[C@@H](C)C(=O)N[C@@H](CCC(N)=O)C(=O)N[C@@H](CCCCNC(=O)COCCOCCNC(=O)C(C)(C)NC(=O)CC[C@H](NC(=O)CCCCCCCCCCCCCCCCCCC(=O)O)C(=O)O)C(=O)N[C@@H](C)C(=O)N[C@@H](Cc1ccccc1)C(=O)N[C@H](C(=O)N[C@@H](CCC(N)=O)C(=O)N[C@@H](Cc1c[nH]c2ccccc12)C(=O)N[C@@H](CC(C)C)C(=O)N[C@H](C(=O)N[C@@H](C)C(=O)NCC(=O)NCC(=O)N1CCC[C@H]1C(=O)N[C@@H](CO)C(=O)N[C@@H](CO)C(=O)NCC(=O)N[C@@H](C)C(=O)N1CCC[C@H]1C(=O)N1CCC[C@H]1C(=O)N1CCC[C@H]1C(=O)N[C@@H](CO)C(N)=O)[C@@H](C)CC)C(C)C [Compound 3] (H-Y[Aib]EGTFTSDYSILLDKIAQK([AEEA-Aib-γGlu-C20 diacid])AFVQWLIAGGPSSGAPPPS-NH2)	6.0*** g	16.0*** g	0 mM	−10.3*** mM	−13.9*** mM	−15.8*** mM	−10.9*** mM	−5.6*** %	−6.6*** mM	0.1 mM	−4.9*** %	-0.7 mM	statistically significant blood glucose reduction upto 96 hr post treatment	statistically significant reduction in food intake and body weight	statistically significant reduction in food intake
CCC[C@H](NC(=O)[C@@H](NC(=O)[C@H](CO)NC(=O)[C@H](Cc1ccc(O)cc1)NC(=O)[C@H](CC(=O)O)NC(=O)[C@H](CO)NC(=O)[C@@H](NC(=O)[C@H](Cc1ccccc1)NC(=O)[C@@H](NC(=O)CNC(=O)[C@H](CCC(=O)O)NC(=O)C(C)(C)NC(=O)[C@@H](N)Cc1ccc(O)cc1)[C@@H](C)O)[C@@H](C)O)[C@@H](C)CC)C(=O)N[C@@H](CC(C)C)C(=O)N[C@@H](CC(=O)O)C(=O)N[C@@H](CCCCN)C(=O)N[C@H](C(=O)N[C@@H](C)C(=O)N[C@@H](CCC(N)=O)C(=O)N[C@@H](CCCCNC(=O)COCCOCCNC(=O)COCCOCCNC(=O)CC[C@H](NC(=O)CCCCCCCCCCCCCCCCCCC(=O)O)C(=O)O)C(=O)N[C@@H](C)C(=O)N[C@@H](Cc1ccccc1)C(=O)N[C@H](C(=O)N[C@@H](CCC(N)=O)C(=O)N[C@@H](Cc1c[nH]c2ccccc12)C(=O)N[C@@H](CC(C)C)C(=O)N[C@H](C(=O)N[C@@H](C)C(=O)NCC(=O)NCC(=O)N1CCC[C@H]1C(=O)N[C@@H](CO)C(=O)N[C@@H](CO)C(=O)NCC(=O)N[C@@H](C)C(=O)N1CCC[C@H]1C(=O)N1CCC[C@H]1C(=O)N1CCC[C@H]1C(=O)N[C@@H](CO)C(N)=O)[C@@H](C)CC)C(C)C)[C@@H](C)CC [Compound 6]	4.2*** g	16.0*** g	0 mM	−15.6*** mM	−15.9*** mM	−16.3*** mM	−11.8*** mM	−5.5*** %	−9.5*** mM	−2.6* mM	−2.2** %	-1.6 mM	statistically significant blood glucose reduction upto 96 hr post treatment	statistically significant reduction in food intake and body weight	statistically significant reduction in food intake
